Experimental data taken from patent US8063096B2, “Spirocyclic 3-phenyl-3substituted-4-ketolactams and-lactones” (Bayer Cropscience AG, priority 2001, dated 2011).

Assays:
Assay type in all cases: in vivo
Phaedon cochleariae = assay: Phaedon larvae test; conditions: 500 ppm active compound, cabbage leaves dipped
Description: (§1) [table] To produce a suitable preparation of active compound, 1 part by weight of active compound is mixed with the stated amounts of solvent and emulsifier, and the concentrate is diluted with emulsifier-containing water to the desired concentration. Cabbage leaves (Brassica oleracea) are treated by being dipped into the preparation of active compound of the desired concentration and are populated with larvae of the mustard beetle (Phaedon cochleariae) while leaves are still moist. After the desired period of time, the kill in % is determined. 100% means that all beetle larvae have been killed; 0% means that none of the beetle larvae have been killed.

Aphis gossypii = Aphis gossypii test (leaf dip, cotton); conditions: 500 ppm active compound, cotton leaves dipped
Description: as §1, with “Cotton” for “Cabbage”, “(Gossypium hirsutum) which are heavily infested by the cotton aphids (Aphis gossypii)” for “(Brassica oleracea)”, “concentration.” for “concentration and are populated with larvae of the mustard beetle (Phaedon cochleariae) while leaves are still moist.”, “aphids” for “beetle larvae”

Meloidogyne incognita = assay: Meloidogyne test (gall formation on lettuce roots); conditions: 20 ppm active compound, nematicidal action by gall formation
Description: [table] To produce a suitable preparation of active compound, 1 part by weight of active compound is mixed with the stated amounts of solvent and emulsifier, and the concentrate is diluted with water to the desired concentration. Vessels are filled with sand, solution of active compound, Meloidogyne incognita egg/larvae suspension and lettuce seeds. The lettuce seeds germinate and the plants develop. On the roots, galls develop. After the desired period of time, the nematicidal action is determined in % by the formation of galls. 100% means that no galls have been found; 0% means that the number of galls on the treated plants corresponds to that of the untreated control.

Tetranychus urticae = assay: Tetranychus test (OP-resistant/dip treatment); conditions: 100 ppm active compound, bean plants dipped, OP-resistant
Description: [table] To produce a suitable preparation of active compound, 1 part by weight of active compound is mixed with the stated amounts of solvent and emulsifier, and the concentrate is diluted with emulsifier-containing water to the desired concentration. Bean plants (Phaseolus vulgaris) which are heavily infested by all stages of the greenhouse […] spider mite (Tetranychus urticae) are dipped into a preparation of active compound of the desired concentration. After the desired period of time, the activity in % is determined. 100% means that all spider mites have been killed; 0% means that none of the spider mites have been killed.

Alopecurus [1] = assay: Pre-emergence test, Alopecurus; conditions: pre-emergence/greenhouse; 250 g of ai/ha; after three weeks
Description: (§2) [table] To produce a suitable preparation of active compound, 1 part by weight of active compound is mixed with the stated amount of solvent, the stated amount of emulsifier is added and the concentrate is diluted with water to the desired concentration. Seeds of the test plants are sown in normal soil. After about 24 hours, the soil is sprayed with the preparation of active compound such that the particular amounts of active compound desired are applied per unit area. The concentration of the spray liquor is chosen such that the particular amounts of active compound desired are applied in 1000 l of water/ha. After three weeks, the degree of damage to the plants is rated in % damage in comparison to the development of the untreated control. The figures denote: • 0%=no effect (like untreated control) • 100%=total destruction

Avena fatua [2] = assay: Pre-emergence test, Avena fatua; conditions: pre-emergence/greenhouse; 250 g of ai/ha; after three weeks
Description: as §2

Echinochloa [3] = assay: Pre-emergence test, Echinochloa; conditions: pre-emergence/greenhouse; 250 g of ai/ha; after three weeks
Description: as §2

Setaria [4] = assay: Pre-emergence test, Setaria; conditions: pre-emergence/greenhouse; 250 g of ai/ha; after three weeks
Description: as §2

Amaranthus [5] = assay: Pre-emergence test, Amaranthus; conditions: pre-emergence/greenhouse; 250 g of ai/ha; after three weeks
Description: as §2

Sinapis [6] = assay: Pre-emergence test, Sinapis; conditions: pre-emergence/greenhouse; 250 g of ai/ha; after three weeks
Description: as §2

Alopecurus [7] = assay: Post-emergence test, Alopecurus; conditions: post-emergence/greenhouse; 250 g of ai/ha; after three weeks
Description: as §2, with “Test plants” for “Seeds”, “a height of 5-15 cm” for “the test plants”, “are” for “are sown in normal soil. After about 24 hours, the soil is”, “(=like” for “(like”

Avena fatua [8] = assay: Post-emergence test, Avena fatua; conditions: post-emergence/greenhouse; 250 g of ai/ha; after three weeks
Description: as §2, with “Test plants” for “Seeds”, “a height of 5-15 cm” for “the test plants”, “are” for “are sown in normal soil. After about 24 hours, the soil is”, “(=like” for “(like”

Echinochloa [9] = assay: Post-emergence test, Echinochloa; conditions: post-emergence/greenhouse; 250 g of ai/ha; after three weeks
Description: as §2, with “Test plants” for “Seeds”, “a height of 5-15 cm” for “the test plants”, “are” for “are sown in normal soil. After about 24 hours, the soil is”, “(=like” for “(like”

Setaria [10] = assay: Post-emergence test, Setaria; conditions: post-emergence/greenhouse; 250 g of ai/ha; after three weeks
Description: as §2, with “Test plants” for “Seeds”, “a height of 5-15 cm” for “the test plants”, “are” for “are sown in normal soil. After about 24 hours, the soil is”, “(=like” for “(like”

Amaranthus [11] = assay: Post-emergence test, Amaranthus; conditions: post-emergence/greenhouse; 250 g of ai/ha; after three weeks
Description: as §2, with “Test plants” for “Seeds”, “a height of 5-15 cm” for “the test plants”, “are” for “are sown in normal soil. After about 24 hours, the soil is”, “(=like” for “(like”

Sinapis [12] = assay: Post-emergence test, Sinapis; conditions: post-emergence/greenhouse; 250 g of ai/ha; after three weeks
Description: as §2, with “Test plants” for “Seeds”, “a height of 5-15 cm” for “the test plants”, “are” for “are sown in normal soil. After about 24 hours, the soil is”, “(=like” for “(like”

Myzus persicae = assay: Myzus test (leaf dip, cabbage); conditions: 500 ppm active compound, cabbage leaves dipped
Description: as §1, with “oleracea) which are heavily infested by peach aphids (Myzus persicae)” for “oleracea)”, “concentration.” for “concentration and are populated with larvae of the mustard beetle (Phaedon cochleariae) while leaves are still moist.”, “aphids” for “beetle larvae”

SMILES | Kill rate in % after 7d (Phaedon cochleariae) [%] | Kill rate in % after 14d (Meloidogyne incognita) [%] | Kill rate in % after 7d (Tetranychus urticae) [%] | % damage, Alopecurus (Alopecurus [1]) [%] | % damage, Avena fatua (Avena fatua [2]) [%] | % damage, Echinochloa (Echinochloa [3]) [%] | % damage, Setaria (Setaria [4]) [%] | % damage, Sinapis (Sinapis [6]) [%] | % damage, Alopecurus (Alopecurus [7]) [%] | % damage, Avena fatua (Avena fatua [8]) [%] | % damage, Echinochloa (Echinochloa [9]) [%] | % damage, Setaria (Setaria [10]) [%] | % damage, Sinapis (Sinapis [12]) [%] | also measured
COC1CCC2(CC1)NC(=O)C(Cl)(c1cc(C)ccc1Cl)C2=O (stereo not shown) [Ex. I-1-a-1] | 100 | – | – | – | – | – | – | – | – | – | – | – | – | –
COC1CCC2(CC1)NC(=O)C(Cl)(c1cc(C)ccc1C)C2=O (stereo not shown) [Ex. I-1-a-2] | – | 90 | 98 | – | – | – | – | – | – | – | – | – | – | Kill rate in % after 6d (Aphis gossypii): 95%
CCOC1CCC2(CC1)NC(=O)C(Cl)(c1c(C)cc(C)cc1C)C2=O (stereo not shown) [Ex. I-1-a-4] | – | – | – | 100 | 90 | 100 | 100 | 95 | 95 | 95 | 100 | 100 | 95 | % damage, Amaranthus (Amaranthus [5]): 100%; % damage, Amaranthus (Amaranthus [11]): 90%
COc1cc(C(F)(F)F)cc(Cl)c1C1(Cl)C(=O)NC2(CCC(OC)CC2)C1=O (stereo not shown) [Ex. I-1-a-5] | – | – | 95 | – | – | – | – | – | – | – | – | – | – | –
COC1CCC2(CC1)NC(=O)C(Cl)(c1c(Cl)cc(C)cc1Cl)C2=O (stereo not shown) [Ex. I-1-a-6] | 100 | – | – | 100 | 95 | 95 | 100 | 90 | 95 | 95 | 100 | 100 | 80 | % damage, Amaranthus (Amaranthus [5]): 100%; % damage, Amaranthus (Amaranthus [11]): 90%
COC1CCC2(CC1)NC(=O)C(Cl)(c1c(C)cc(Br)cc1C)C2=O (stereo not shown) [Ex. I-1-a-9] | 90 | – | – | 100 | 80 | 100 | 100 | 90 | 95 | 90 | 100 | 100 | 80 | –
COC1CCC2(CC1)NC(=O)C(Cl)(c1ccc(C)cc1C(F)(F)F)C2=O (stereo not shown) [Ex. I-1-a-16] | – | – | 100 | – | – | – | – | – | – | – | – | – | – | –
COC1CCC2(CC1)NC(=O)C(Cl)(c1ccc(OC(F)(F)F)cc1C)C2=O (stereo not shown) [Ex. I-1-a-22] | – | – | 100 | – | – | – | – | – | – | – | – | – | – | –
COC1CCC2(CC1)NC(=O)C(Cl)(c1c(Cl)cc(Cl)c(C)c1Cl)C2=O (stereo not shown) [Ex. I-1-a-27] | – | 100 | – | – | – | – | – | – | – | – | – | – | – | Kill rate in % after 6d (Myzus persicae): 90%
COC1CCC2(CC1)NC(=O)C(Cl)(c1c(Cl)ccc(C)c1Cl)C2=O (stereo not shown) [Ex. I-1-a-33] | – | 98 | – | – | – | – | – | – | – | – | – | – | – | –
